These results are taken from ChEMBL document CHEMBL2029318, “Synthesis and SAR of selective small molecule neuropeptide Y Y2 receptor antagonists” (Bioorg Med Chem Lett, 2012).

pIC50: −log10 of the molar value. Active and inactive are the calls of the source.

Format in all cases: functional
The target of assay [1] is T1, Neuropeptide Y receptor type 2 (Homo sapiens, UniProt P49146).
T1 sequence (P49146 whole entry): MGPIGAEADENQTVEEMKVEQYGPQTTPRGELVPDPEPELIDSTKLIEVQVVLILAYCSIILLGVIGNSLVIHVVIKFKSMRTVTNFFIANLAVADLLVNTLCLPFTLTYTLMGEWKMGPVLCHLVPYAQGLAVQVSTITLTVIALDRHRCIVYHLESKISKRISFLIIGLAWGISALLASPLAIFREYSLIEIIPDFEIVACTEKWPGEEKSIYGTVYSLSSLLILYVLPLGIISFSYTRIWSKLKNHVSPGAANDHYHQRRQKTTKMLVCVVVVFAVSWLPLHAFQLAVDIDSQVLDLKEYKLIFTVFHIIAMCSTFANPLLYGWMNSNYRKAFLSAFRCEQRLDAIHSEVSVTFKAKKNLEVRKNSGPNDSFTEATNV
The assay is described as follows: Antagonist activity at neuropeptide Y receptor Y2.

In assay [2] the target is T2, Neuropeptide Y receptor type 1 (Homo sapiens) (UniProt P25929).
T2 sequence (whole entry): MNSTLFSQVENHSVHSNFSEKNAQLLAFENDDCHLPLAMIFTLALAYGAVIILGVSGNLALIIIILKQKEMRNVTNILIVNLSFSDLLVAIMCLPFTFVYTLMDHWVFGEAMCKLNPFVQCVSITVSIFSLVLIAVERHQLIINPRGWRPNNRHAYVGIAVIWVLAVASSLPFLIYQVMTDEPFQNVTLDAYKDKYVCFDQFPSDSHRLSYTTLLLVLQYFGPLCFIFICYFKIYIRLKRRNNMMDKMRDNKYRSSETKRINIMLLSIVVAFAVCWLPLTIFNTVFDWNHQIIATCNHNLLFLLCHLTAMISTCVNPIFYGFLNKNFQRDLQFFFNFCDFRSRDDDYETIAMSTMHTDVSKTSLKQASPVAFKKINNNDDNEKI
The assay is described as follows: Antagonist activity at neuropeptide Y receptor Y1 at 10 uM.

Assay [3] deals with T3, Neuropeptide Y receptor type 2 (Homo sapiens) (UniProt P49146).
T3 sequence (whole entry): T1 sequence (P49146 whole entry)
The assay is described as follows: Antagonist activity at neuropeptide Y receptor Y2 at 10 uM.

Regarding `O=S(=O)(c1ccc(NC(=S)N2CCC(C(O)(c3ccccc3)c3ccccc3)CC2)cc1)N1CCCC1`, the negative-log IC50 (pIC50) in assay [1] was 6.93. The outcome in assay [2] was inactive.

Take `CN(C)c1ccc(NC(=S)N2CCC(C(O)(c3ccccc3)c3ccccc3)CC2)cc1`: the negative-log IC50 (pIC50) in assay [1] is 6.21. Moreover, the outcome in assay [2] was inactive.

In assay [1], `CCN(CC)C(=O)c1ccc(NC(=S)N2CCC(C(O)(c3ccccc3)c3ccccc3)CC2)cc1` gave a pIC50 of 7.11. Moreover, the outcome in assay [2] was inactive.

In turn, `CCN(CC)S(=O)(=O)c1ccc(NC(=S)N2CCC(C(O)(c3ccccc3)c3ccccc3)CC2)cc1` gave a pIC50 in assay [1] of 6.87. For the same compound, the result in assay [2] was inactive.

Compound `COc1ccc(NC(=S)N2CCC(C(O)(c3ccccc3)c3ccccc3)CC2)cc1` gave a pIC50 in assay [1] of 5.96. For the same compound, the outcome in assay [2] was inactive.

For `CCOc1ccc(NC(=S)N2CCC(C(O)(c3ccccc3)c3ccccc3)CC2)cc1`, the pIC50 in assay [1] is 6.72. For the same compound, in assay [2], the outcome was inactive.

`CCOc1ccc(NC(=S)N2CCC(C(O)(c3ccccc3)c3c(C)noc3C)CC2)cc1` (stereo not given) had a pIC50 in assay [1] of 5.48. Besides, the result in assay [2] was inactive.

As to `COc1cccc(-c2nc(-c3ccc(NC(=O)Cc4ccccc4OC)cc3)no2)c1`, the pIC50 in assay [1] was 5.92.

The compound `CCOc1ccc(NC(=S)N2CCN(C(c3ccccc3)c3ccccc3)CC2)cc1` showed a pIC50 in assay [1] of 6.43. Also, the result in assay [2] was inactive.

Consider `CN(C)S(=O)(=O)c1ccc(NC(=S)N2CCC(C(O)(c3ccccc3)c3ccsc3)CC2)cc1` (stereo not given), for which the pIC50 in assay [1] was 6.61. The outcome in assay [2] was inactive.

Turning to `Cc1ccc(S(=O)(=O)C(c2ccccc2)c2c(C)noc2C)cc1` (stereo not given), the negative-log IC50 (pIC50) in assay [1] is 5.36.

On to `CS(=O)(=O)c1ccc(OC(=O)N2CCC(C(O)(c3ccccc3)c3ccccc3)CC2)cc1`, for which the pIC50 in assay [1] is 6.85. For the same compound, the outcome in assay [2] was inactive.

`CCN(CC)S(=O)(=O)c1ccc(OC(=O)N2CCC(C(O)(c3ccccc3)c3ccccc3)CC2)cc1` had a pIC50 in assay [1] of 7.92. In addition, the result in assay [2] was inactive.

Take `OC(c1ccccc1)(c1ccccc1)C1CCN(C(=S)Nc2ccccc2)CC1`: the result in assay [2] and in assay [3] was inactive.

Turning to `CCCc1ccc(NC(=S)N2CCC(C(O)(c3ccccc3)c3ccccc3)CC2)cc1`, the pIC50 in assay [1] was 6.11. In assay [2], the outcome was inactive.

For `OC(c1ccccc1)(c1ccccc1)C1CCN(C(=S)Nc2ccc(N3CCCC3)cc2)CC1`, in assay [1], the pIC50 is 5.92. Besides, the outcome in assay [2] was inactive.

In assay [1], `CCOC(=O)c1ccc(NC(=S)N2CCC(C(O)(c3ccccc3)c3ccccc3)CC2)cc1` had a pIC50 of 6.68. For the same compound, the outcome in assay [2] was inactive.

In assay [1], `CN(C)S(=O)(=O)c1ccc(NC(=S)N2CCN(C(c3ccccc3)c3ccccc3)CC2)cc1` gave a pIC50 of 6.32. Besides, in assay [2], the result was inactive.

Turning to `COc1ccc(OC(=O)N2CCC(C(O)(c3ccccc3)c3ccccc3)CC2)cc1`, the pIC50 in assay [1] is 5.57. Besides, the result in assay [2] was inactive.

For `CCOc1ccc(OC(=O)N2CCC(C(O)(c3ccccc3)c3ccccc3)CC2)cc1`, the pIC50 in assay [1] was 5.80. Moreover, the result in assay [2] was inactive.

As to `CCN(CC)c1ccc(NC(=S)N2CCC(C(O)(c3ccccc3)c3ccccc3)CC2)cc1`, the pIC50 in assay [1] was 7.14. Moreover, the outcome in assay [2] was inactive.

With `CCOc1ccc(NC(=S)N2CCC(C(c3ccccc3)c3ccccc3)CC2)cc1`, the pIC50 in assay [1] was less than 5.00. In addition, the result in assay [2] was inactive.

Take `CN(C)S(=O)(=O)c1ccc(NC(=S)N2CCC(C(O)(c3ccccc3)c3ccccn3)CC2)cc1` (stereo not given): the pIC50 in assay [1] is 7.01. Further, in assay [2], the result was inactive.

Turning to `CNC(=O)c1ccc(NC(=S)N2CCC(C(O)(c3ccccc3)c3ccccc3)CC2)cc1`, the pIC50 in assay [1] is 5.85. For the same compound, in assay [2], the outcome was inactive.

Turning to `CCOc1ccc(NC(=S)N2CCC(C(O)(c3ccccc3)c3ccccc3)CC2)cc1C#N`, the pIC50 in assay [1] was 6.49. Also, in assay [2], the result was inactive.

Compound `CCOc1ccc(NC(=S)N2CCC(C(O)(c3ccccc3)c3ccccc3)CC2)c(F)c1` showed a pIC50 in assay [1] of 5.87. Also, in assay [2], the outcome was inactive.

`CN(C)S(=O)(=O)c1ccc(NC(=S)N2CCC(C(O)(c3ccccc3)c3ccccc3)CC2)cc1`: in assay [1], the pIC50 was 7.72. Moreover, the outcome in assay [2] was inactive.

For `CCNC(=O)c1ccc(NC(=S)N2CCC(C(O)(c3ccccc3)c3ccccc3)CC2)cc1`, the pIC50 in assay [1] is 6.69. The outcome in assay [2] was inactive.

Turning to `CCN(CC)c1ccc(NC(=S)N2CCC(C(O)(c3ccccc3)c3ccccc3)CC2)cc1Cl`, the pIC50 in assay [1] is 7.07. Moreover, the outcome in assay [2] was inactive.

Compound `CN(C)C(=O)c1ccc(NC(=S)N2CCC(C(O)(c3ccccc3)c3ccccc3)CC2)cc1` had a pIC50 in assay [1] of 6.52. The result in assay [2] was inactive.

As to `CC(C)Oc1ccc(NC(=S)N2CCC(C(O)(c3ccccc3)c3ccccc3)CC2)cc1`, the pIC50 in assay [1] was 5.75. Further, the outcome in assay [2] was inactive.

`Cc1ccc(C)c(NS(=O)(=O)c2cc(C(=O)Nc3ccccc3-c3ccccc3)ccc2C)c1`: the pIC50 in assay [1] is 6.36.

Regarding `CN(C)S(=O)(=O)c1ccc(NC(=S)N2CCC(C(O)(c3ccccc3)c3ccc(F)cc3)CC2)cc1` (stereo not given), in assay [1], the pIC50 was 7.05. Also, the result in assay [2] was inactive.

Turning to `CN(C)S(=O)(=O)c1ccc(OC(=O)N2CCC(C(O)(c3ccccc3)c3ccccc3)CC2)cc1`, the pIC50 in assay [1] is 7.21. Further, the outcome in assay [2] was inactive.

Compound `CS(=O)(=O)Nc1ccc(OC(=O)N2CCC(C(O)(c3ccccc3)c3ccccc3)CC2)cc1` gave a negative logarithm of the IC50 (pIC50) in assay [1] of 6.40. Moreover, in assay [2], the outcome was inactive.

Take `O=C(Oc1ccc(S(=O)(=O)N2CCCC2)cc1)N1CCC(C(O)(c2ccccc2)c2ccccc2)CC1`: the negative-log IC50 (pIC50) in assay [1] was 7.31. For the same compound, the outcome in assay [2] was inactive.

Compound `CCN(CC)C(=O)c1ccc(OC(=O)N2CCC(C(O)(c3ccccc3)c3ccccc3)CC2)cc1` showed a pIC50 in assay [1] of 6.66. Besides, the outcome in assay [2] was inactive.

`CN(C)S(=O)(=O)c1ccc(NC(=S)N2CCN(C3c4ccccc4NC(=O)c4ccccc43)CC2)cc1` (stereo not given): in assay [1], the pIC50 was 7.17. In assay [2], the outcome was inactive.

In assay [1], `CCS(=O)(=O)c1ccc(OC(=O)N2CCC(C(O)(c3ccccc3)c3ccccc3)CC2)cc1` gave a pIC50 of 7.23. In addition, the outcome in assay [2] was inactive.

Compound `CCOC(=O)c1ccc(NC(=S)N2CCC(C(c3ccccc3)c3ccccc3)CC2)cc1` had a pIC50 in assay [1] of 5.17. Moreover, the result in assay [2] was inactive.

In the case of `CC(C)Oc1ccc(NC(=S)N2CCC(C(O)(c3ccccc3)c3ccccc3)CC2)cc1C#N`, the pIC50 in assay [1] is 6.05. Further, the result in assay [2] was inactive.

`OC(c1ccccc1)(c1ccccc1)C1CCN(C(=S)Nc2ccc(OC(F)(F)F)cc2)CC1` had a pIC50 in assay [1] of 5.98. Further, the outcome in assay [2] was inactive.

In the case of `OC(c1ccccc1)(c1ccccc1)C1CCN(C(=S)Nc2ccc(C(F)(F)F)cc2)CC1`, the pIC50 in assay [1] was 6.75. The outcome in assay [2] was inactive.

`CCNS(=O)(=O)c1ccc(NC(=S)N2CCC(C(O)(c3ccccc3)c3ccccc3)CC2)cc1` showed a pIC50 in assay [1] of 6.92. Besides, the result in assay [2] was inactive.

Usually pIC50 stands for the IC50 on a negative log10 scale, so that one unit is a factor of ten. Read a high pIC50 as a low IC50.
